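In this assay, cells in 96-well plates receive the compound at five concentrations for 48 hours. Endpoints are linearly interpolated between the surrounding concentrations. At the GI50, growth is halved. TGI: total growth inhibition.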 A value given as a limit tells only on which side of the number the result lay.

Experiment in all cases: inhibition of tumour cell growth, NCI panel, 48 h
For experiment [1], the system named is TK-10 renal.
Experiment [2] concerns DMS 114 small cell lung.
For experiment [3], the system named is HT29 colon.
Experiment [4] relates to MOLT-4 leukemia.
In experiment [5] the test system is HOP-92 NSCLC.
Experiment [6] concerns HOP-62 NSCLC.
The subject of experiment [7] is HOP-18 NSCLC.
Experiment [8] has as its system SR leukemia.
Experiment [9] has as its system MALME-3M melanoma.
The subject of experiment [10] is T-47D breast.

Turning to `NCC1(N2CCOCC2)C2CCCC21CNc1ccccc1` (centres undefined), the TGI in experiment [1], in experiment [2], in experiment [3], in experiment [4], in [5] and in [6] was greater than 100 µM each time. Besides, the TGI in [7], in [8] and in experiment [9] was greater than 100 µM throughout.
Consider `Nc1ccc(C(=O)Nc2ccccc2N)cc1`, for which the TGI in experiment [1] was greater than 63.1 µM; in experiment [2] it was greater than 100 µM; in [3], greater than 100 µM; in experiment [4], 73.7 µM; in [5], greater than 100 µM; in [6], greater than 100 µM. The TGI is greater than 100 µM in experiment [7], greater than 100 µM in experiment [8] and 30.3 µM in [9].
`CC1CC(c2ccc(Cl)c(Cl)c2)=Nc2ccccc2S1` (centres undefined): the TGI in experiment [1], in experiment [2], in experiment [3], in experiment [4], in experiment [5] and in experiment [6] was greater than 100 µM in each case. In addition, the TGI in [7], in experiment [8] and in experiment [9] was greater than 100 µM in each case.
For the compound `CN1CCc2cc3c4cc2C1Cc1ccc(cc1)Oc1cc(ccc1O)CC1c2c(cc(O)c(c2O4)O3)CCN1C` (centres undefined), the TGI amounted to 31 µM in experiment [1]; 4.58 µM in experiment [2]; 9.42 µM in experiment [3]; 10.2 µM in experiment [4]; 8.13 µM in experiment [5]; 11.2 µM in experiment [6]. Moreover, the TGI was 18.5 µM in experiment [7], greater than 100 µM in experiment [8] and 3.56 µM in [9].
For `COC(=O)C1=C(\O)C[C@@]2(C)CC[C@@H](C(=O)OC)C2C/C=C\1C(=O)OC` (some centres undefined), the TGI in experiment [1], in [2], in [3], in [4], in [5] and in experiment [6] was greater than 100 µM throughout. Further, the TGI in experiment [7], in experiment [8] and in experiment [9] was greater than 100 µM throughout.
Turning to `COC(CC1(OC)OC(=O)C=C1N)OC` (centres undefined), the TGI in experiment [1], in [2], in [3], in experiment [4], in [5] and in [6] was greater than 100 µM each time. Moreover, the TGI in [7], in experiment [8] and in experiment [9] was greater than 100 µM in each case.
In the case of `COC(=O)NC(=O)c1cn(C2CCCCC2)c(=O)[nH]c1=O`, the TGI in experiment [1], in experiment [2], in experiment [3], in experiment [4], in experiment [5] and in [6] was greater than 100 µM each time. The TGI in experiment [7], in [8] and in [9] was greater than 100 µM in each case.
In the case of `NC(=O)c1cc([N+](=O)[O-])cc([N+](=O)[O-])c1`, the TGI in experiment [1], in [2], in [3], in [4], in experiment [5] and in experiment [6] was greater than 100 µM each time. Further, the TGI in experiment [8] and in [9] was greater than 100 µM in each case.
For `O=C(NC1C(=O)NNC1c1ccccc1Cl)c1ccccc1` (centres undefined), the TGI in [1], in experiment [2], in experiment [3], in experiment [4], in [5] and in experiment [6] was greater than 100 µM throughout. Besides, the TGI in experiment [7], in [8] and in [9] was greater than 100 µM in each case.
For `O=C1c2ccccc2C(=O)c2c1ccc1c2N=C(c2ccc(Br)cc2)CC(c2cccc3ccccc23)N1` (centres undefined), the TGI in [1], in experiment [2], in [3], in experiment [6], in [7] and in experiment [8] was greater than 100 µM in each case. In addition, the TGI in experiment [9] was greater than 100 µM.
On to `Cn1cnc([N+](=O)[O-])c1Sc1nc2ccc([N+](=O)[O-])cc2[nH]1`, for which the TGI is 59.3 µM in experiment [1]; greater than 100 µM in experiment [3]; 47.7 µM in experiment [4]; 39.8 µM in experiment [5]; greater than 100 µM in [6]; greater than 100 µM in experiment [7]. This compound also came in with a TGI in experiment [8] of 41.5 µM.
With `CCCCCCCCCCCC(=O)OC(COC(N)=O)COc1ccc(Cl)cc1` (centres undefined), the TGI in experiment [1] is greater than 100 µM; in experiment [2] it was 33.1 µM; in experiment [3], 40.6 µM; in [4], 44.3 µM; in [6], greater than 100 µM; in experiment [7], 95.7 µM. The TGI in experiment [9] was found to be 48.3 µM.
Consider `NC(=O)c1ncn(Cc2ccccc2)c1CNC(N)=S`, for which the TGI in [1], in [2], in experiment [3], in experiment [4], in experiment [7] and in [8] was greater than 100 µM throughout.
As to `O=C1CC[C@@H](NC(=O)Cc2ccccc2)C(=O)N1`, the TGI in experiment [1], in experiment [3], in experiment [4], in experiment [5], in experiment [6] and in experiment [7] was greater than 100 µM throughout. In addition, the TGI in experiment [8] and in experiment [9] was greater than 100 µM each time.
For the compound `O=C1/C(=C/c2ccccc2[N+](=O)[O-])COc2ccc(O)c(O)c21`, the GI50 in [10] was 0.918 µM; in experiment [1] it was 1.22 µM; in [3], 0.529 µM; in experiment [4], 0.431 µM; in experiment [5], 1.1 µM; in experiment [6] it was 3.55 µM. For the same compound, the GI50 in [8] is 0.476 µM; in experiment [9], 0.866 µM. In addition, the TGI is 4.72 µM in experiment [10]; 3.32 µM in [1]; 3.35 µM in [3]; greater than 21.8 µM in [4]; 2.9 µM in experiment [5]; 14.5 µM in experiment [6]. For the same compound, the figures for the TGI in [8] and in [9] were greater than 100 µM and 3 µM, respectively.
For the compound `CCN1C(=O)N(CC)C2C1NN=c1s/c(=C\c3ccc(OC)cc3)c(=O)n12` (centres undefined), the GI50 in [10] is 0.163 µM; in experiment [1], greater than 33.5 µM; in [3], 0.238 µM; in experiment [4] it was 0.378 µM; in [5], 3.25 µM; in experiment [6] it was 0.381 µM. The results for the GI50 in experiment [8] and in [9] were 0.0444 µM and 0.304 µM, respectively. Besides, the TGI was greater than 100 µM in [10]; greater than 100 µM in experiment [1]; greater than 82.4 µM in [3]; greater than 100 µM in [4]; greater than 100 µM in experiment [5]; greater than 59.4 µM in experiment [6]. The same compound returned a TGI in experiment [9] greater than 100 µM.
Turning to `CCCCC(C(=O)CCC(=O)Nc1ccc(Cl)cc1)C(=O)C(C)C` (centres undefined), the TGI in experiment [1], in experiment [2], in experiment [3], in experiment [4], in experiment [5] and in experiment [6] was greater than 100 µM each time. Moreover, the TGI in experiment [8] and in [9] was greater than 100 µM each time.
On to `O=C(/C=C/c1ccc(O)cc1)c1cc(Cl)ccc1O`, for which the TGI in experiment [1] is greater than 100 µM; in [2], 67.4 µM; in experiment [3] it was greater than 100 µM; in experiment [4], 55.8 µM; in experiment [5], greater than 100 µM; in experiment [6] it was greater than 100 µM. For the same compound, the TGI was greater than 100 µM in [7], 54.6 µM in experiment [8] and greater than 100 µM in experiment [9].
On to `O=C1NC(=O)C(c2c[nH]c3ccccc23)=C1c1ccccc1`, for which the GI50 in [10], in experiment [1], in [3], in experiment [4], in experiment [5] and in experiment [6] was greater than 25 µM in each case. The GI50 in experiment [8] and in [9] was greater than 25 µM in each case. The TGI in experiment [10], in experiment [1], in [3], in experiment [4], in experiment [5] and in experiment [6] was greater than 25 µM in each case. The TGI in experiment [8] and in [9] was greater than 25 µM in each case.
Take `Cc1c(O)c(Br)c(C)c(O)c1Br` (tested in a mixture with another compound): the TGI amounted to 5.54 µM in experiment [10]; 3.01 µM in experiment [1]; 4.78 µM in experiment [3]; 3.09 µM in experiment [4]; 3.03 µM in experiment [5]; 40.3 µM in [6]. The TGI was determined as 3.28 µM in [8] and 3.55 µM in [9].
As for `ClCCCCOC1CCCCO1` (centres undefined), the TGI in [1], in [2], in experiment [3], in experiment [4], in [5] and in [6] was greater than 100 µM each time. The TGI in experiment [7] and in experiment [9] was greater than 100 µM each time.
With `Cc1ccc(NC(=O)C(=O)CC(=O)c2ccccc2)cc1C`, the TGI in [1], in [2], in experiment [3], in experiment [5], in experiment [6] and in [7] was greater than 100 µM in each case. The compound also showed a TGI in experiment [9] greater than 100 µM.
With `O=C(/C=C/c1ccccc1)OCC1=C[C@@H](O)[C@@H]2C=CO[C@@H](OC3OC(CO)C(O)C(O)C3O)[C@H]12` (some centres undefined), the TGI in experiment [10], in [1], in [3], in experiment [4], in experiment [5] and in [6] was greater than 100 µM throughout. Further, the TGI in experiment [8] and in experiment [9] was greater than 100 µM in each case.
With `Oc1cccc(-c2nc(-c3ccccc3)[nH]c2-c2ccncc2)c1`, the GI50 is 9.31 µM in experiment [10]; 16.5 µM in experiment [1]; 7.46 µM in experiment [3]; 24.9 µM in experiment [4]; 5.98 µM in experiment [5]; 16.8 µM in [6]. For the same compound, the GI50 in experiment [8] was 11.3 µM; in experiment [9] it was 0.719 µM. Further, the TGI is 24.3 µM in experiment [10]; greater than 25 µM in [1]; greater than 25 µM in experiment [3]; greater than 25 µM in experiment [4]; 24.2 µM in experiment [5]; greater than 25 µM in experiment [6]. Besides, the TGI in experiment [8] was greater than 25 µM; in [9], 8.01 µM.
For the compound `CCCc1n(Cc2ccc3ccccc3n2)cc[n+]1Cc1ccc2ccccc2n1`, the GI50 in experiment [10] was 0.416 µM; in [1] it was 2.84 µM; in experiment [3] it was 1.61 µM; in [4], 2.89 µM; in experiment [5], 0.56 µM; in experiment [6], 4.17 µM. The GI50 in [8] was 0.635 µM; in experiment [9], 1.17 µM. Also, the TGI was found to be 5.03 µM in [10]; 12.7 µM in experiment [1]; 11.4 µM in experiment [3]; 16.5 µM in experiment [4]; 4.18 µM in experiment [5]; 17.9 µM in [6]. The TGI stood at 12.7 µM in [8] and 7.51 µM in [9].
As for `N[C@@H](CSSC[C@H](N)C(=O)N1CCn2cc(-c3ccccc3)nc2[C@@H]1CC1CCCCC1)C(=O)N1CCn2cc(-c3ccccc3)nc2[C@@H]1CC1CCCCC1`, the GI50 is 0.543 µM in experiment [10]; 2.05 µM in [1]; 1.63 µM in experiment [3]; 1.74 µM in [4]; 2.45 µM in experiment [5]; 1.59 µM in [6]. Moreover, the GI50 is 1.38 µM in experiment [8] and 1.5 µM in [9]. The TGI in [10] is 2.02 µM; in experiment [1], 4.45 µM; in experiment [3] it was 3.42 µM; in experiment [4] it was greater than 21.4 µM; in experiment [5], 5.8 µM; in experiment [6] it was 3.25 µM. Moreover, in experiment [9], the TGI amounted to 2.99 µM.
As for `c1ccc2c(c1)N=C(c1ccc3ccccc3c1)CC(c1cccc3ccccc13)S2` (centres undefined), the TGI is greater than 100 µM in experiment [1]; greater than 100 µM in experiment [2]; greater than 100 µM in experiment [3]; 44.2 µM in [4]; greater than 100 µM in [6]; greater than 100 µM in experiment [7]. Also, in experiment [9], the TGI is greater than 100 µM.

Source of the values: PubChem BioAssay (NCI).
